Patent publication US20260041679A1, “METHOD OF TREATING HYPERTENSION WITH THE ALDOSTERONE SYNTHASE INHIBITOR BAXDROSTAT” (CINCOR PHARMA, INC., priority 2022, published 2026)

What was measured:
patients with uHTN = experiment: Study 124 Part 2: 2 mg baxdrostat monotherapy for 4 weeks, SBP and safety; assay type: in vivo, human; details: Part 2
Experimental: Study 124 is a double-blind, placebo-controlled, dose range finding, multicenter study conducted in patients with uHTN receiving background antihypertensive agent(s) that are either an ACEI or an ARB, an ACEI/ARB plus a thiazide diuretic, or an ACEI/ARB plus a calcium channel blocker. The study consists of two parts: Part 1 consists of an 8-week treatment period in which the patients are to be assigned to one of 4 dose groups in equal ratio testing 0.5 mg, 1 mg, and 2 mg baxdrostat effects compared to a placebo. Patients are to administer double-blind baxdrostat tablets once per day while they continue taking the background antihypertensive medications. After 8 weeks of double-blind treatment, patients were to enter part 2 of the study unless the patient was assigned to the 2 mg group and the SBP remains ≥130 mmHg. In part 2 of the study, all patients are to cease dosing with background antihypertensive medication and take only baxdrostat 2 mg dose as a monotherapy for 4 weeks.
The secondary objectives are to evaluate the change from baseline in mean seated DBP with each of the selected dose strengths of baxdrostat compared to placebo after 8 weeks of treatment (Part 1), the change from baseline in 24-hour urine aldosterone and serum aldosterone levels with each of the selected dose strengths of baxdrostat compared to placebo after 8 weeks of treatment (Part 1), the percentage of patients achieving a mean seated SBP<130 mmHg (“responders”) with each of the selected dose strengths of baxdrostat compared to placebo after 8 weeks; and the change from baseline in 24-hour urine renin and serum renin levels with baxdrostat compared to placebo after 8 weeks of treatment. Patients who have completed the Part 2 study through Week 12 or who were considered withdrawn at the end of Part 1 may be eligible to enter a separate open label extension study (Study 130). Part 2 is an exploratory phase of the trial designed to evaluate the effect of 4 weeks of monotherapy with 2 mg baxdrostat in this hypertensive population, but the major goal of the Part 2 period is to transition patients to a long-term open label safety extension study of baxdrostat at the highest dose likely to be used in the hypertension population.
In Part 2, background antihypertensive therapy was discontinued following Part 1, and patients took two mg Baxdrostat for four additional weeks. […] There were two cases of moderate hyperkalemia with K+>/=6.0 mEq/L in the 213 patients in Part 2; both patients had stopped diuretic at the start of Part 2 and developed transient moderate hyperkalemia within 2 weeks.

[1] = Relative bioavailability tablet vs oral solution and food effect (Example 3); assay type: in vivo, human; details: for Tmax: human, plasma, oral, 5 mg
Experimental: The relative bioavailability of a tablet formulation of baxdrostat was compared to the oral solution of baxdrostat that was administered in the SAD (Example 1) and MAD (Example 2) studies. A single 5 mg dose of each formulation in fourteen healthy volunteers established that plasma levels of baxdrostat were equivalent whether administered using the oral solution or tablet. This study also assessed the effect of a standardized high-fat meal on the PK of baxdrostat.

CCC(=O)N[C@@H]1CCCc2c(-c3ccc4c(c3)CCC(=O)N4C)cncc21 [baxdrostat, (R)—N-(4-(1-methyl-2-oxo-1,2,3,4-tetrahydroquinolin-6-yl)-5,6,7,8-tetrahydroisoquinolin-8-yl) propionamide]
TEAEs Leading to death, e - Number of events (patients with uHTN; 2 mg, n = 60): 0
TEAEs Leading to death, n - Number of subjects (patients with uHTN; 2 mg, n = 60): 0
TEAEs Leading to dosing discontinuation, % (patients with uHTN; 2 mg, n = 60): 0%
TEAEs Leading to dosing discontinuation, e - Number of events (patients with uHTN; 2 mg, n = 60): 0
TEAEs Leading to dosing discontinuation, n - Number of subjects (patients with uHTN; 2 mg, n = 60): 0
TEAEs Leading to study discontinuation, % (patients with uHTN; 2 mg, n = 60): 0.0%
TEAEs Leading to study discontinuation, e - Number of events (patients with uHTN; 2 mg, n = 60): 0
TEAEs Leading to study discontinuation, n - Number of subjects (patients with uHTN; 2 mg, n = 60): 0
TEAEs, % (patients with uHTN; 2 mg, n = 60): 16.7%
TEAEs, e - Number of events (patients with uHTN; 2 mg, n = 60): 9
TEAEs, n - Number of subjects (patients with uHTN; 2 mg, n = 60): 7
AESI, % (patients with uHTN; Placebo to 2 mg, n = 64): 1.7%
AESI, e - Number of events (patients with uHTN; Placebo to 2 mg, n = 64): 2
AESI, n - Number of subjects (patients with uHTN; Placebo to 2 mg, n = 64): 1
SAEs, % (patients with uHTN; Placebo to 2 mg, n = 64): 3.3%
SAEs, e - Number of events (patients with uHTN; Placebo to 2 mg, n = 64): 2
SAEs, n - Number of subjects (patients with uHTN; Placebo to 2 mg, n = 64): 2
TEAEs Drug-Related, % (patients with uHTN; Placebo to 2 mg, n = 64): 5.0%
TEAEs Drug-Related, e - Number of events (patients with uHTN; Placebo to 2 mg, n = 64): 5
TEAEs Drug-Related, n - Number of subjects (patients with uHTN; Placebo to 2 mg, n = 64): 3
TEAEs Leading to death, % (patients with uHTN; Placebo to 2 mg, n = 64): 0.0%
TEAEs Leading to death, e - Number of events (patients with uHTN; Placebo to 2 mg, n = 64): 0
TEAEs Leading to death, n - Number of subjects (patients with uHTN; Placebo to 2 mg, n = 64): 0
TEAEs Leading to dosing discontinuation, % (patients with uHTN; Placebo to 2 mg, n = 64): 0%
TEAEs Leading to dosing discontinuation, e - Number of events (patients with uHTN; Placebo to 2 mg, n = 64): 0
TEAEs Leading to dosing discontinuation, n - Number of subjects (patients with uHTN; Placebo to 2 mg, n = 64): 0
TEAEs Leading to study discontinuation, % (patients with uHTN; Placebo to 2 mg, n = 64): 0.0%
TEAEs Leading to study discontinuation, e - Number of events (patients with uHTN; Placebo to 2 mg, n = 64): 0
TEAEs Leading to study discontinuation, n - Number of subjects (patients with uHTN; Placebo to 2 mg, n = 64): 0
TEAEs, % (patients with uHTN; Placebo to 2 mg, n = 64): 21.7%
TEAEs, e - Number of events (patients with uHTN; Placebo to 2 mg, n = 64): 24
TEAEs, n - Number of subjects (patients with uHTN; Placebo to 2 mg, n = 64): 13
AESI, % (patients with uHTN; Total, n = 249): 1.4%
AESI, e - Number of events (patients with uHTN; Total, n = 249): 4
AESI, n - Number of subjects (patients with uHTN; Total, n = 249): 3
SAEs, % (patients with uHTN; Total, n = 249): 1.4%
SAEs, e - Number of events (patients with uHTN; Total, n = 249): 4
SAEs, n - Number of subjects (patients with uHTN; Total, n = 249): 3
TEAEs Drug-Related, % (patients with uHTN; Total, n = 249): 5.2%
TEAEs Drug-Related, e - Number of events (patients with uHTN; Total, n = 249): 15
TEAEs Drug-Related, n - Number of subjects (patients with uHTN; Total, n = 249): 11
TEAEs Leading to death, % (patients with uHTN; Total, n = 249): 0.0%
TEAEs Leading to death, e - Number of events (patients with uHTN; Total, n = 249): 0
TEAEs Leading to death, n - Number of subjects (patients with uHTN; Total, n = 249): 0
TEAEs Leading to dosing discontinuation, % (patients with uHTN; Total, n = 249): 0.9%
TEAEs Leading to dosing discontinuation, e - Number of events (patients with uHTN; Total, n = 249): 3
TEAEs Leading to dosing discontinuation, n - Number of subjects (patients with uHTN; Total, n = 249): 2
TEAEs Leading to study discontinuation, % (patients with uHTN; Total, n = 249): 0.0%
TEAEs Leading to study discontinuation, e - Number of events (patients with uHTN; Total, n = 249): 0
TEAEs Leading to study discontinuation, n - Number of subjects (patients with uHTN; Total, n = 249): 0
TEAEs, % (patients with uHTN; Total, n = 249): 19.2%
TEAEs, e - Number of events (patients with uHTN; Total, n = 249): 74
TEAEs, n - Number of subjects (patients with uHTN; Total, n = 249): 41
Tmax ([1]; fasted state): ~3 h
Tmax ([1]; fed state (high-fat meal)): ~4 h
plasma levels, oral solution vs tablet ([1]; single 5 mg dose of each formulation): equivalent
effect of high-fat meal on plasma levels ([1]; tablet, single 5 mg): no noteworthy effect
